Data taken from patent US7863281B2, “Bicyclic heterocycles, pharmaceutical compositions containing these compounds, their use and processes for the preparation thereof” (Boehringer Ingelheim Pharma GmbH & Co. KG, priority 2002, dated 2011).

Target: T1, human EGF-receptor kinase (Homo sapiens, UniProt P00533)
T1 construct: GST; made in house; host or cells: Sf9 insect cells (Baculovirus expression system)
Experiment: Inhibition of human EGF-receptor kinase (ELISA, pEY substrate)
Type: biochemical
Conditions: cytoplasmic tyrosine kinase domain (Met664-Ala1186) as GST fusion protein; poly(EY)/bio-pEY substrate; 30 minutes at ambient temperature
Protocol: The inhibition of human EGF-receptor kinase was determined using the cytoplasmic tyrosine kinase domain (methionine 664 to alanine 1186 based on the sequence published in Nature 309 (1984), 418). For this the protein was expressed in Sf9 insect cells as GST fusion protein using the Baculovirus expression system.
The enzyme activity was measured in the presence or absence of the test compounds in serial dilutions. The polymer pEY (4:1) obtained from SIGMA was used as the substrate. Biotinylated pEY (bio-pEY) was added as the tracer substrate. 100 μl of reaction solution contained 10 μl of the inhibitor in 50% DMSO, 20 μl of the substrate solution (200 mM HEPES pH 7.4, 50 mM magnesium acetate, 2.5 mg/ml poly(EY), 5 μg/ml bio-pEY) and 20 μl of enzyme preparation. The enzyme reaction was started by the addition of 50 μl of a 100 μM ATP solution in 10 mM of magnesium chloride. The dilution of the enzyme preparation was adjusted so that the incorporation of phosphate in the bio-pEY was linear in terms of time and quantity of enzyme. The enzyme preparation was diluted in 20 mM HEPES pH 7.4, 1 mM EDTA, 130 mM common salt, 0.05% Triton X-100, 1 mM DTT and 10% glycerol.
The enzyme assays were carried out at ambient temperature over a period of 30 minutes and ended by the addition of 50 μl of a stopping solution (250 mM EDTA in 20 mM HEPES pH 7.4). 100 μl were placed on a streptavidin-coated microtitre plate and incubated for 60 minutes at ambient temperature. Then the plate was washed with 200 μl of a wash solution (50 mM Tris, 0.05% Tween 20). After the addition of 100 μl of an HRPO-labelled anti-PY antibody (PY20H Anti-PTyr:HRP made by Transduction Laboratories, 250 ng/ml) the preparation was incubated for 60 minutes. Then the microtitre plate was washed three times with 200 μl of wash solution. The samples were then combined with 100 μl of a TMB-peroxidase solution (A:B=1:1, Kirkegaard Perry Laboratories). After 10 minutes the reaction was stopped. The extinction was measured at OD450nm with an ELISA reader. All the results were measured three times. […]

T1 sequence (P00533 688-1210): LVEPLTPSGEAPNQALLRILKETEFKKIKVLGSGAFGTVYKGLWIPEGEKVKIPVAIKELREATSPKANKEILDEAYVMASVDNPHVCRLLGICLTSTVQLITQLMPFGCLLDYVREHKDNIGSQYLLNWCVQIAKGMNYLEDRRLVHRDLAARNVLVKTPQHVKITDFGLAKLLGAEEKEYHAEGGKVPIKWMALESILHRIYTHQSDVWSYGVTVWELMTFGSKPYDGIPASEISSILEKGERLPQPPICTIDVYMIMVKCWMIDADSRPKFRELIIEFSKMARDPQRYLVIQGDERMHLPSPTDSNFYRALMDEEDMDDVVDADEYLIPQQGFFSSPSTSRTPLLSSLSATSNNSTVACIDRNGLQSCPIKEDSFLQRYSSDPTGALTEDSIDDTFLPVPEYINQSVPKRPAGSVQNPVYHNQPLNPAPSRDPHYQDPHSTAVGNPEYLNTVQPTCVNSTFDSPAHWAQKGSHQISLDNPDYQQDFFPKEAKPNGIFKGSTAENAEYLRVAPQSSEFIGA

Compound	IC50 [nM]
O=C(/C=C/CN1C[C@@H]2C[C@H]1CO2)Nc1cc2c(Nc3ccc(F)c(Cl)c3)ncnc2cc1OCC1CC1 [Example 1, 4-[(3-chloro-4-fluoro-phenyl)amino]-6-{[4-((1S,4S)-2-oxa-5-aza-bicyclo[2.2.1]hept-5-yl)-1-oxo-2-buten-1-yl]amino}-7-cyclopropylmethoxy-quinazoline]	1.5
O=C(/C=C/CN1C[C@H]2C[C@@H]1CO2)Nc1cc2c(Nc3ccc(F)c(Cl)c3)ncnc2cc1O[C@H]1CCOC1 [Example 2(2), 4-[(3-chloro-4-fluoro-phenyl)amino]-6-{[4-((1R,4R)-2-oxa-5-aza-bicyclo[2.2.1]hept-5-yl)-1-oxo-2-buten-1-yl]amino}-7-[(S)-(tetrahydrofuran-3-yl)oxy]-quinazoline]	0.5
O=C(/C=C/CN1CC2CCC(C1)O2)Nc1cc2c(Nc3ccc(F)c(Cl)c3)ncnc2cc1O[C@H]1CCOC1 [Example 2(3), 4-[(3-chloro-4-fluoro-phenyl)amino]-6-{[4-(8-oxa-3-aza-bicyclo[3.2.1]oct-3-yl)-1-oxo-2-buten-1-yl]amino}-7-[(S)-(tetrahydrofuran-3-yl)oxy]-quinazoline]	2
